Source: US20240315989A1 (priority 2021, published 2024)
Read-outs that look alike come from different tables or passages of the source.

Assays:
[1] = test system: COVID-19 (SARS-CoV-2 infection)
COVID-19 [2] = details: follow-up questionnaire
[3] = cited from earlier work
COVID-19 [4] = test system: COVID-19
[5] = test system: LPS- or fecal slurry-induced inflammatory response; details: cited from earlier work; for Survival: wildtype mice, LPS, IRE1-mediated inflammation, fecal-induced peritonitis
[6] = test system: COVID-19 (SARS-CoV-2 infection); remark: listed apart in the source
[7] = test system: HEK293T cell lines expressing ACE2 and TMPRSS2; details: FIG. 27; cited from earlier work
[8] = test system: α1-, α2-, β-adrenergic, muscarinic, dopamine D2, histamine H1, GABA-benzodiazepine, opiate, 5-HT1, or 5-HT2 receptors; details: cited from earlier work
[9] = test system: LPS-induced cytokine production; details: human peripheral blood; cited from earlier work
[10] = Intent to Treat Analysis, all randomized
[11] = per protocol, fluvoxamine group
[12] = Bayesian, moderately optimistic prior

Compound: COCCCC/C(=N\OCCN)c1ccc(C(F)(F)F)cc1.O=C(O)/C=C\C(=O)O [fluvoxamine, 5-methoxy-4′-(trifluoromethyl)valerophenone-(E)-O-(2-aminoethyl)oxime maleate (1:1)]
- Hospitalization or extended emergency room visit due to COVID-19, HR [1]: 0.77
- Patients with any interaction with a COVID-19 emergency setting, No. [1]: 180
- Period of hospitalization, estimated treatment effect [1]: 1.23
- Progression to severe COVID (FDA categorization), % of patients [1]: 10.1%
- Proportion of primary outcome events, % [1]: 3.6%
- Time on mechanical ventilator, estimated treatment effect [1]: 1.03
- Primary outcome events (retention in COVID-19 emergency setting >6 h or transfer to tertiary hospital), No. of patients ([1]; 100 mg): 79
- Proportion of primary outcome events, % ([1]; 24 h): 10.5%
- Probability of superiority (event rate lower than placebo) ([1]; ITT population): 99.8%
- Primary outcome events, % of patients ([1]; ITT, of 741, 28 days): 11%
- Primary outcome events, n/N [1, 10]: (79/741)
- Proportion of primary outcome events (retention in COVID-19 emergency setting >6 hours or transfer to tertiary hospital), % [1, 10]: 10.7%
- Primary outcome events (retention in a COVID-19 emergency setting or transfer to tertiary hospital due to COVID-19), % ([1]; Intention-to-treat analysis, N 741): (11%)
- Primary outcome events, n/N ([1]; Modified Intent to Treat Analysis, received ≥24 hours of study medicine): (78/740)
- Primary outcome events (retention in a COVID-19 emergency setting or transfer to tertiary hospital due to COVID-19), % ([1]; Modified intention-to-treat analysis, N 740): (11%)
- Primary outcome events, n/N ([1]; Per Protocol, received 80% of study medicine prior to any deterioration): (20/548)
- All-cause hospitalization, n/N ([1]; TOGETHER, fluvoxamine group): 76/741
- Death, intention to treat, % ([1]; TOGETHER, fluvoxamine group): (2%)
- Death, intention to treat, n/N ([1]; TOGETHER, fluvoxamine group): 17/741
- Hospitalized for COVID, n/N ([1]; TOGETHER, fluvoxamine group): 75/741
- Probability that event rate was lower than placebo ([1]; mITT population): 99.7%
- Time to death ([1]; median, fluvoxamine group): 17 days
- Death, per protocol, % [1, 11]: (<1%)
- Death, per protocol, n/N [1, 11]: 1/548
- Deaths, No. ([1]; per-protocol population): one
- Reduction in risk of death (mortality) ([1]; per-protocol, took at least 80% of pills): 91%
- Deaths, No. ([1]; primary intention-to-treat analysis): 17
- Number needed to treat ([1]; primary outcome): 20
- Hospitalization or extended emergency room visit due to COVID-19, n_Fluvoxamine ([1]; subgroup Age <=50): 23
- Hospitalization or extended emergency room visit due to COVID-19, HR ([1]; subgroup Age <=50, vs placebo): 0.57
- Hospitalization or extended emergency room visit due to COVID-19, HR ([1]; subgroup Age >50, vs placebo): 0.67
- Hospitalization or extended emergency room visit due to COVID-19, n_Fluvoxamine ([1]; subgroup BMI (Kg/m^2) >30): 44
- Hospitalization or extended emergency room visit due to COVID-19, HR ([1]; subgroup BMI (Kg/m^2) >30, vs placebo): 0.64
- Hospitalization or extended emergency room visit due to COVID-19, HR ([1]; subgroup Cardiovascular disease N, vs placebo): 0.67
- Hospitalization or extended emergency room visit due to COVID-19, n_Fluvoxamine ([1]; subgroup Cardiovascular disease Y): 0
- Hospitalization or extended emergency room visit due to COVID-19, n_Fluvoxamine ([1]; subgroup Chronic kidney disease N): 78
- Hospitalization or extended emergency room visit due to COVID-19, n_Fluvoxamine ([1]; subgroup Chronic kidney disease Y): 1
- Hospitalization or extended emergency room visit due to COVID-19, n_Fluvoxamine ([1]; subgroup Sex Female): 28
- Hospitalization or extended emergency room visit due to COVID-19, n_Fluvoxamine ([1]; subgroup Sex Male): 51
- Hospitalization or extended emergency room visit due to COVID-19, HR ([1]; subgroup Sex Male, vs placebo): 0.80
- Hospitalization or extended emergency room visit due to COVID-19, HR ([1]; subgroup Smoking status Current, vs placebo): 0.80
- Hospitalization or extended emergency room visit due to COVID-19, n_Fluvoxamine ([1]; subgroup Smoking status Former): 10
- Hospitalization or extended emergency room visit due to COVID-19, HR ([1]; subgroup Smoking status Former, vs placebo): 0.46
- Hospitalization or extended emergency room visit due to COVID-19, n_Fluvoxamine ([1]; subgroup Time from onset of symptoms 0-3 days): 30
- Time to death, estimated treatment effect ([1]; unadjusted hazard ratio, fluvoxamine vs placebo): 0.80
- Death, intention to treat, estimated treatment effect ([1]; unadjusted odds ratio, fluvoxamine vs placebo): 0.69
- Ache in chest wall (ribs/sternum) present during the course of COVID-19, % (COVID-19 [2]): (33%)
- Ache in chest wall (ribs/sternum) present within past 48 hours at follow-up, % (COVID-19 [2]): (11%)
- Chest pain that worsens when taking a deep breath, present during the course of COVID-19, % (COVID-19 [2]): (37%)
- Chest pain that worsens when taking a deep breath, present within past 48 hours at follow-up, % (COVID-19 [2]): (17%)
- Chest pressure present during the course of COVID-19, % (COVID-19 [2]): (54%)
- Chest pressure present within past 48 hours at time of follow-up, % (COVID-19 [2]): (17%)
- Chest tightness present during the course of COVID-19, % (COVID-19 [2]): (54%)
- Chest tightness present within past 48 hours at follow-up, % (COVID-19 [2]): (17%)
- Pain deep inside the chest present during the course of COVID-19, % (COVID-19 [2]): (31%)
- Pain deep inside the chest present within past 48 hours at follow-up, % (COVID-19 [2]): (9%)
- Sharp chest pains present during the course of COVID-19, % (COVID-19 [2]): (33%)
- Sharp chest pains present within past 48 hours at follow-up, % (COVID-19 [2]): (13%)
- volume of distribution [V/F] ([3]; one-compartment model): 928 L
- Free fraction in plasma ([3]; unbound to plasma proteins): 20%
- Probability RR <1 (COVID-19 [4]; [12]): 97.2%
- Probability RR ≤0.9 (COVID-19 [4]; [12]): 89.9%
- Probability RR <1 (COVID-19 [4]; Bayesian, weakly neutral prior): 94.1%
- Probability RR ≤0.9 (COVID-19 [4]; Bayesian, weakly neutral prior): 81.6%
- Probability RR <1 (COVID-19 [4]; Frequentist analysis): 98.3%
- Probability RR ≤0.9 (COVID-19 [4]; Frequentist analysis): 91.1%
- Probability of at least a moderate effect (COVID-19 [4]; frequentist meta-analysis): 91.1%
- Probability that fluvoxamine prevents hospitalization (COVID-19 [4]; frequentist meta-analysis): 98.3%
- Effect on endotoxic shock-induced death ([5]; S1R KO animals): no significant effect
- Cytokine levels ([5]; wildtype mice exposed to LPS or fecal slurry): reduced cytokine levels
- Survival [5]: increased survival
- Survival ([5]; listed as FLV): enhanced survival
- Clinical status on 7-point scale, difference between group means vs placebo [6]: −0.22
- Most severe baseline symptom change score, difference between group means vs placebo [6]: 0.3
- 30-d post trial observation events, % ([6]; 30 days after day 15): (1.3) %
- Most severe baseline symptom change score (difference between baseline and final rating) ([6]; day 0 to day 15, 0-10 scale): −5.6
- 30-d post trial observation events, absolute difference vs placebo ([6]; difference in proportions): −0.1
- Absolute difference vs placebo, 7-point scale 0 (none) ([6]; difference in proportions): 8.3
- Absolute difference vs placebo, 7-point scale 1 ([6]; difference in proportions): −2.8
- Absolute difference vs placebo, 7-point scale 3 ([6]; difference in proportions): −4.2
- Absolute difference vs placebo, 7-point scale 5 ([6]; difference in proportions): −1.4
- Absolute difference vs placebo, 7-point scale any nonzero value ([6]; difference in proportions): −8.3
- Clinical status on 7-point scale, mean (SD) ([6]; n = 80): 0
- WHO scale, 0-1 = uninfected or ambulatory, % ([6]; n = 80): (100%)
- WHO scale, 2 = limitation of activities, % ([6]; n = 80): (0%)
- WHO scale, 2 = limitation of activities, No ([6]; n = 80): 0
- WHO scale, 3 = hospitalized, no O2 needed, % ([6]; n = 80): (0%)
- WHO scale, 3 = hospitalized, no O2 needed, No ([6]; n = 80): 0
- WHO scale, 4 = hospitalized, O2 needed, % ([6]; n = 80): (0%)
- WHO scale, 4 = hospitalized, O2 needed, No ([6]; n = 80): 0
- WHO scale, 5 = non-invasive vent or high-flow O2, % ([6]; n = 80): (0%)
- WHO scale, 5 = non-invasive vent or high-flow O2, No ([6]; n = 80): 0
- WHO scale, 6 = ventilator needed, % ([6]; n = 80): (0%)
- WHO scale, 6 = ventilator needed, No ([6]; n = 80): 0
- WHO scale, 7 = ventilator + additional organ support, % ([6]; n = 80): (0%)
- WHO scale, 7 = ventilator + additional organ support, No ([6]; n = 80): 0
- WHO scale, 8 = Death, % ([6]; n = 80): (0%)
- WHO scale, total participants with values >1, % ([6]; n = 80): (0%)
- WHO scale, total participants with values >1, No ([6]; n = 80): 0
- 7-point scale, 1 = O2 sat <92% but no supplemental O2, % ([6]; n = 80, 15 days): (0%)
- 7-point scale, 1 = O2 sat <92% but no supplemental O2, No ([6]; n = 80, 15 days): 0
- 7-point scale, 2 = Above + supplemental O2 needed, % ([6]; n = 80, 15 days): (0%)
- 7-point scale, 2 = Above + supplemental O2 needed, No ([6]; n = 80, 15 days): 0
- 7-point scale, 3 = Above + hospitalization needed, % ([6]; n = 80, 15 days): (0%)
- 7-point scale, 3 = Above + hospitalization needed, No ([6]; n = 80, 15 days): 0
- 7-point scale, 4 = Above + ventilator needed (<3 days), % ([6]; n = 80, 15 days): (0%)
- 7-point scale, 4 = Above + ventilator needed (<3 days), No ([6]; n = 80, 15 days): 0
- 7-point scale, 5 = Above + ventilator needed (≥3 days), % ([6]; n = 80, 15 days): (0%)
- 7-point scale, 5 = Above + ventilator needed (≥3 days), No ([6]; n = 80, 15 days): 0
- 7-point scale, 6 = Death, % ([6]; n = 80, 15 days): (0%)
- 7-point scale, total participants with values >0 (any nonzero value), No ([6]; n = 80, 15 days): 0
- 7-point scale, total participants with values >0, % ([6]; n = 80, 15 days): (0%)
- 30-d post trial observation events (emergency department visit, hospitalization, or both), No. ([6]; of 80, 30 days after day 15): 1
- HEK293T-ACE2-TMPRSS2 cell IC50 [7]: 4.579 µg/mL
- Affinity for α1-, α2-, β-adrenergic, muscarinic, dopamine D2, histamine H1, GABA-benzodiazepine, opiate, 5-HT1, or 5-HT2 receptors [8]: negligible affinity
- LPS-induced cytokine production by human cells [9]: reduce LPS-induced cytokine production
